# Results published in ChEMBL document CHEMBL1201862, “PubChem BioAssay data set” (2004).
# The source made the active and inactive calls.
# Tests used:
# [1] = alpha-synuclein stem-loop luciferase translation blockers – H4 neuroglioma cells, luminescence, confirmation (AID 1988); type: functional, cell-based
# BJ [2] = assay: BJ-TERT fibroblast viability loss – cell-based, RAS-independent, luminescence, dose response (AID 1933); type: functional; conditions: Homo sapiens
# BJ [3] = assay: cells; type: functional, cell-based; conditions: Homo sapiens
# BJ [4] = assay: BJ-TERT-LT-ST fibroblast viability loss – cell-based, RAS-independent, luminescence, dose response (AID 1935); type: functional; conditions: Homo sapiens;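 further: BJ fibroblasts immortalized with TERT plus LT and ST oncogenes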
# [5] = Luminescence Cell-Based Dose Response HTS to Identify Inhibitors of 5'UTR Stem-Loop Driven Prion Protein mRNA Translation in H4 Neuroglioblastoma Cells. [Related pubchem assays: 1827 (Project Summary), 1813 (Primary HTS)]; type: functional
# [6] = Vero E6 cell cytotoxicity, dose response, cytotoxicity control for non-replicating M. tuberculosis project, secondary assay (AID 492998); type: functional, VeroE6; conditions: Vero C1008
# [7] = THP-1 cell cytotoxicity, dose response, cytotoxicity control for non-replicating M. tuberculosis project (AID 489025); type: functional
# [8] = loss of viability in HepG2 cells – cell-based, CellTiter-Glo, cherry-picked, cytotoxicity control for Shn3 inhibitor project, dose response (AID 624134); type: functional
# Hexokinase HKDC1 = target: T1, Hexokinase HKDC1 (Homo sapiens, UniProt Q2TB90); assay: inhibition of HKDC1 glucose phosphorylation – biochemical, W721R variant, dose response (AID 504729); type: functional
# T1 sequence (Q2TB90 whole entry): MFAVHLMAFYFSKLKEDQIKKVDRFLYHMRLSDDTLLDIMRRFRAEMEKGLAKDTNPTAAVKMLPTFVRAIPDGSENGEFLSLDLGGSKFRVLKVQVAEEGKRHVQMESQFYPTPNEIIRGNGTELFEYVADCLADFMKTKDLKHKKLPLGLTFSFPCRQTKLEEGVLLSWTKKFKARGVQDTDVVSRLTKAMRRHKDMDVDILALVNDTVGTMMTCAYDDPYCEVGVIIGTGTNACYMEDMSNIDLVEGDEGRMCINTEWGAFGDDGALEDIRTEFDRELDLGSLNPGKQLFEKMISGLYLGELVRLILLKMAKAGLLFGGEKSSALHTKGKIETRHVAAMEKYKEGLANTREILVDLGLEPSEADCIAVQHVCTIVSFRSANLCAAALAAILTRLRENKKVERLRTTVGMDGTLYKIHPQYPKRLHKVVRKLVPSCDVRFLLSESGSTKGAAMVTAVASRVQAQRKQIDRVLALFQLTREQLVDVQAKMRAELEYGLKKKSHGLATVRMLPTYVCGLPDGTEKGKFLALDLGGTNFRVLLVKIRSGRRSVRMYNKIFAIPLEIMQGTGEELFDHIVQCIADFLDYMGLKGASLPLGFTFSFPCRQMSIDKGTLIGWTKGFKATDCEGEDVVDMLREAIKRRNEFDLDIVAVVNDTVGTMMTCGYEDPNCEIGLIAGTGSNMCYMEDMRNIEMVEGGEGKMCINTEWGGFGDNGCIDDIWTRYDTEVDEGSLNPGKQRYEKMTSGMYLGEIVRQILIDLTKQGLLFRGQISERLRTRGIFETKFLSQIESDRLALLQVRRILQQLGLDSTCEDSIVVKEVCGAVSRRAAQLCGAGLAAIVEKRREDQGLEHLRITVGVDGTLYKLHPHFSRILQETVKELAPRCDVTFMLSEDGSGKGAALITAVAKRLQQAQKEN
# Streptokinase A = target: T2, Streptokinase A (Streptococcus pyogenes serotype M1, UniProt P10520); assay: viability-normalized secreted streptokinase activity reduction – plasminogen activation absorbance, OD405, dose response (AID 1914); type: functional, Streptococcus pyogenes M1 GAS;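 further: secreted streptokinase activity via plasminogen activation per viability signal from cell pellet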
# T2 sequence (P10520 whole entry): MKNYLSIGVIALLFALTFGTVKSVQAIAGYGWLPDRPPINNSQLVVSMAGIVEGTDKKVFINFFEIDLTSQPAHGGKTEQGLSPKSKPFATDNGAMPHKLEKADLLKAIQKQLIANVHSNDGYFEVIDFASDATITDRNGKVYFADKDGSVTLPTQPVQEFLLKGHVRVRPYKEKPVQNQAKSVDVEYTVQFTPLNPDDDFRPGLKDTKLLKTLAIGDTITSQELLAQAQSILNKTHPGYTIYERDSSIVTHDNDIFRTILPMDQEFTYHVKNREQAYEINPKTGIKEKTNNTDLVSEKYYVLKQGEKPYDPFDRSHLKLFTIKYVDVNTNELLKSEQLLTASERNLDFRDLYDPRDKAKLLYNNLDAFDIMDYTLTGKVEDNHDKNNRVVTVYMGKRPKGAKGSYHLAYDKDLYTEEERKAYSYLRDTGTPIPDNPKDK
# [9] = off-target signal loss in HeLa-CEM21 co-culture – HeLa F-luc CTL cells, cherry-picked, counter-screen for HIV-1 Env fusion inhibitor project, dose response (AID 652040); type: functional, cell-based;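 further: potency for signal decrease marking cytotoxic or nonspecific inhibition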
# [10] = blockers of HIV-1 ZM109 envelope-driven cell-cell fusion – HeLa effector, CEM target cells, luciferase, cherry-pick, dose response (AID 652058); type: functional, cell-based;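 further: luciferase signal from HIV-1 Env mediated cell-cell fusion of effector and target cells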
compound,measurement,setting,value
COc1cccc(/C=N/Nc2ccc([N+](=O)[O-])cn2)c1O,EC50,[1],540 nM (active)
same,EC50,BJ [2],3.31 µM (inconclusive)
same,EC50,BJ [3],9.14 µM (inconclusive)
same,EC50,BJ [4],4.96 µM (inconclusive)
same,EC50,[5],340 nM (active)
Oc1c(C(c2ccccc2Cl)N2CCCC2)ccc2cccnc12 (configuration not stated),CC50,[6],9.56 µM (active)
same,CC50,[7],9.54 µM (active)
same,AC50,[8],46.9 µM (active)
CCc1ccc(S(=O)(=O)/N=C2\C=C(Nc3ccc(C(=O)O)cc3)C(=O)c3ccccc32)cc1,IC50,Hexokinase HKDC1,6.5 µM (active)
same,EC50,Streptokinase A,> 150 µM (not active)
same,AC50,[9],1.29 µM (active)
same,AC50,[10],6.74 µM (active)
